The record followed here is patent US20080249141A1, “Co-therapy with and combinations of statins and 1,4-dihydropyridine-3,5-dicarboxydiesters” (priority 2007, published 2008).

For this assay the following is noted: patient.

Turning to `CC(C)c1c(C(=O)Nc2ccccc2)c(-c2ccccc2)c(-c2ccc(F)cc2)n1CC[C@@H](O)C[C@@H](O)CC(=O)[O-].CC(C)c1c(C(=O)Nc2ccccc2)c(-c2ccccc2)c(-c2ccc(F)cc2)n1CC[C@@H](O)C[C@@H](O)CC(=O)[O-].[Ca+2]` [amorphous atorvastatin calcium], the “therapeutic effectiveness after change from crystalline atorvastatin calcium” value (20 mg once daily with 10 mg amlodipine) is recorded as “without change in the therapeutic effectiveness”. In the case of `CC(C)c1c(C(=O)Nc2ccccc2)c(-c2ccccc2)c(-c2ccc(F)cc2)n1CC[C@@H](O)C[C@@H](O)CC(=O)[O-].CC(C)c1c(C(=O)Nc2ccccc2)c(-c2ccccc2)c(-c2ccc(F)cc2)n1CC[C@@H](O)C[C@@H](O)CC(=O)[O-].[Ca+2]` [crystalline atorvastatin calcium], the therapeutic effect result (20 mg once a day, co-administered 10 mg amlodipine once daily) is given as “good therapeutic effect”.
